Test results from US11878965B2, “Inhibitors of peptidylarginine deiminases” (Gilead Sciences, Inc., priority 2020, dated 2024).
pIC50: −log10 of the molar value.

Target: human PAD4 (Homo sapiens (Human), UniProt Q9UM07)
Assay: In Vitro PAD4 BAEE Biochemical Assay
Conditions: human PAD4, BAEE substrate; 5 nM PAD4, 2 mM calcium chloride, 3 mM BAEE; geometric mean of multiple experiments
In short: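 Deimination of BAEE substrate (3 mM) measured as ammonia via o-phthalaldehyde–DTT isoindole fluorescence, 405/535 nm. Tag-free bacterially expressed human PAD4 at 5 nM with 2 mM calcium chloride, pH 7.6 MOPS buffer, 30 min compound preincubation then 2 h reaction, both at 25 °C.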

Chain of human PAD4 (Q9UM07 2-663): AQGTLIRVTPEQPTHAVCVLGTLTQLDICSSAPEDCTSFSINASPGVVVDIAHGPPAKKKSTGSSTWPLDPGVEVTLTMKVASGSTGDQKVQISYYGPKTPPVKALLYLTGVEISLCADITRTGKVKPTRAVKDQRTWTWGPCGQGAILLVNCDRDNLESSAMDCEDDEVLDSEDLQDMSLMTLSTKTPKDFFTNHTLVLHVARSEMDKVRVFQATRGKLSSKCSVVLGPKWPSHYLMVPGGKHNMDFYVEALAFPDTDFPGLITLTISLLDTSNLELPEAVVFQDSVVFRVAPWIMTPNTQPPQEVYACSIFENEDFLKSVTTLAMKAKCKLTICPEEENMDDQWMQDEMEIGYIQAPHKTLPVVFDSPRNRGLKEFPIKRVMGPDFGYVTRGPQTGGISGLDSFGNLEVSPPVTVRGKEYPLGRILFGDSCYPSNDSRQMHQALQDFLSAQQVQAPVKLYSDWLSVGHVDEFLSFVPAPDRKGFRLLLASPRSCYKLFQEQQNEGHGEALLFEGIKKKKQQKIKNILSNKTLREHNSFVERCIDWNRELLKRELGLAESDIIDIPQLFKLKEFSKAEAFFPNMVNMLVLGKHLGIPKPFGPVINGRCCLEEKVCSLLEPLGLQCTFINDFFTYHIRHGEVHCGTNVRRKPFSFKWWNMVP

SMILES | pIC50
COc1cc(C(=O)N2C[C@H](N)CCN2C)cc2nc(-c3cc4ccc([C@@H](C)NC(=O)C5(CF)CC5)nc4n3CC3CC3)n(C)c12 [Example 190, N-((R)-1-(2-(5-((R)-5-amino-2-methylhexahydropyridazine-1-carbonyl)-7-methoxy-1-methyl-1H-benzo[d]imidazol-2-yl)-1-(cyclopropylmethyl)-1H-pyrrolo[2,3-b]pyridin-6-yl)ethyl)-1-(fluoromethyl)cyclopropane-1-carboxamide] | 7.05
COc1cc(C(=O)N2CC3(CCCN3)C2)cc2nc(-c3cc4ccc(N(C(F)F)S(C)(=O)=O)nc4n3CC3CC3)n(C)c12 [Example 77, N-(1-(cyclopropylmethyl)-2-(7-methoxy-1-methyl-5-(2,5-diazaspiro[3.4]octane-2-carbonyl)-1H-benzo[d]imidazol-2-yl)-1H-pyrrolo[2,3-b]pyridin-6-yl)-N-(difluoromethyl) methanesulfonamide] | 4.30
COc1cc(C(=O)N2C[C@H](N)CCN2C)cc2nc(-c3cc4ccc([C@@H](C)NC(=O)C5(C(F)(F)F)CC5)nc4n3CC3CC3)n(C)c12 [Example 192, N-((R)-1-(2-(5-((R)-5-amino-2-methylhexahydropyridazine-1-carbonyl)-7-methoxy-1-methyl-1H-benzo[d]imidazol-2-yl)-1-(cyclopropylmethyl)-1H-pyrrolo[2,3-b]pyridin-6-yl)ethyl)-1-(trifluoromethyl)cyclopropane-1-carboxamide] | 6.76
COc1cc(C(=O)N2C[C@H](N)CCN2C)cc2nc(-c3cc4ccc([C@@H](C)NC(=O)C56CC(C)(C5)C6)nc4n3CC3CC3)n(C)c12 [Example 187, N-((R)-1-(2-(5-((R)-5-amino-2-methylhexahydropyridazine-1-carbonyl)-7-methoxy-1-methyl-1H-benzo[d]imidazol-2-yl)-1-(cyclopropylmethyl)-1H-pyrrolo[2,3-b]pyridin-6-yl)ethyl)-3-methylbicyclo[1.1.1]pentane-1-carboxamide] | 7.01
COc1cc(C(=O)N2[C@H]3CC[C@@H]2[C@H](N)C3)cc2nc(-c3cc4cc(F)c(CCNC(=O)C56CC(F)(C5)C6)cc4n3CC3CC3)n(C)c12 [Example 146, N-((R)-2-(2-(5-((1R,2R,4S)-2-amino-7-azabicyclo[2.2.1]heptane-7-carbonyl)-7-methoxy-1-methyl-1H-benzo[d]imidazol-2-yl)-1-(cyclopropylmethyl)-5-fluoro-1H-indol-6-yl)ethyl)-3-fluorobicyclo[1.1.1]pentane-1-carboxamide] | 7.34
COc1cc(C(=O)N2CCC[C@@H](N)C2)cc2nc(-c3cc4ccc([C@@H](C)N5CCCC5=O)nc4n3CC3CC3)n(C3CC3)c12 [Example 244, 1-((R)-1-(2-(5-((R)-3-aminopiperidine-1-carbonyl)-1-cyclopropyl-7-methoxy-1H-benzo[d]imidazol-2-yl)-1-(cyclopropylmethyl)-1H-pyrrolo[2,3-b]pyridin-6-yl)ethyl)pyrrolidin-2-one] | 7.31
COc1cc(C(=O)N2[C@H]3CC[C@@H]2[C@H](N)C3)cc2nc(-c3cc4ccc([C@@H](C)NC(=O)N5CCCC5)nc4n3CC3CC3)n(C)c12 [Example 234, N-((R)-1-(2-(5-((1R,2R,4S)-2-amino-7-azabicyclo[2.2.1]heptane-7-carbonyl)-7-methoxy-1-methyl-1H-benzo[d]imidazol-2-yl)-1-(cyclopropylmethyl)-1H-pyrrolo[2,3-b]pyridin-6-yl)ethyl)pyrrolidine-1-carboxamide] | 7.46
COc1cc(C(=O)N2[C@H]3CC[C@@H]2[C@H](N)C3)cc2nc(-c3cc4ccc(N(C(F)F)S(C)(=O)=O)nc4n3CC3CC3)n(C3CC3)c12 [Example 64, N-(2-(5-((1R,2R,4S)-2-amino-7-azabicyclo[2.2.1]heptane-7-carbonyl)-1-cyclopropyl-7-methoxy-1H-benzo[d]imidazol-2-yl)-1-(cyclopropylmethyl)-1H-pyrrolo [2,3-b]pyridin-6-yl)-N-(difluoromethyl) methanesulfonamide] | 6.89
COc1cc(C(=O)N2[C@H]3CC[C@@H]2[C@H](N)C3)cc2nc(-c3cc4ccc(N(C)S(C)(=O)=O)nc4n3CC3CC3)n(C)c12 [Example 79, N-(2-(5-((1R,2R,4S)-2-amino-7-azabicyclo[2.2.1]heptane-7-carbonyl)-7-methoxy-1-methyl-1H-benzo[d]imidazol-2-yl)-1-(cyclopropylmethyl)-1H-pyrrolo[2,3-b]pyridin-6-yl)-N-methyl-methanesulfonamide] | 7.47
COc1cc(C(=O)N2[C@H]3CC[C@@H]2[C@H](N)C3)cc2nc(-c3cc4ccc(-n5c(C)cccc5=O)nc4n3CC3CC3)n(C)c12 [Example 255, 1-(2-(5-((1R,2R,4S)-2-amino-7-azabicyclo[2.2.1]heptane-7-carbonyl)-7-methoxy-1-methyl-1H-benzo[d]imidazol-2-yl)-1-(cyclopropylmethyl)-1H-pyrrolo[2,3-b]pyridin-6-yl)-6-methylpyridin-2(1H)-one] | 7.40
COc1cc(C(=O)N2C[C@H](N)CCN2C)cc2nc(-c3cc4ccc([C@@H](C)NC(=O)c5cccnc5)nc4n3CC3CC3)n(C)c12 [Example 201, N-((R)-1-(2-(5-((R)-5-amino-2-methylhexahydropyridazine-1-carbonyl)-7-methoxy-1-methyl-1H-benzo[d]imidazol-2-yl)-1-(cyclopropylmethyl)-1H-pyrrolo[2,3-b]pyridin-6-yl)ethyl)nicotinamide] | 7.17
COc1cc(C(=O)N2[C@H]3CC[C@@H]2[C@H](N)C3)cc2nc(-c3cc4ccc([C@@H](C)NC(=O)c5ccccc5)cc4n3CC3CC3)n(C)c12 [Example 136, N-((R)-1-(2-(5-((1R,2R,4S)-2-amino-7-azabicyclo[2.2.1]heptane-7-carbonyl)-7-methoxy-1-methyl-1H-benzo[d]imidazol-2-yl)-1-(cyclopropylmethyl)-1H-indol-6-yl)ethyl)benzamide] | 7.56
COc1cc(C(=O)N2[C@H]3CC[C@@H]2[C@H](N)C3)cc2nc(-c3cc4ccc([C@@H](C)NS(=O)(=O)c5cnn(C)c5)nc4n3CC3CC3)n(C)c12 [Example 241, N-((R)-1-(2-(5-((1R,2R,4S)-2-amino-7-azabicyclo[2.2.1]heptane-7-carbonyl)-7-methoxy-1-methyl-1H-benzo[d]imidazol-2-yl)-1-(cyclopropylmethyl)-1H-pyrrolo[2,3-b]pyridin-6-yl)ethyl)-1-methyl-1H-pyrazole-4-sulfonamide] | 7.12
COc1cc(C(=O)N2C[C@H](N)CCN2C)cc2nc(-c3cc4ccc([C@@H](C)NC(=O)c5cc(F)cc(F)c5C)nc4n3CC3CC3)n(C)c12 [Example 213, N-((R)-1-(2-(5-((R)-5-amino-2-methylhexahydropyridazine-1-carbonyl)-7-methoxy-1-methyl-1H-benzo[d]imidazol-2-yl)-1-(cyclopropylmethyl)-1H-pyrrolo[2,3-b]pyridin-6-yl)ethyl)-3,5-difluoro-2-methylbenzamide] | 6.87
COc1cc(C(=O)N2[C@H]3CC[C@@H]2[C@H](N)C3)cc2nc(-c3cc4ccc([C@H]5CCCN5C(C)=O)nc4n3CC3CC3)n(C)c12 [Example 247, 1-((R)-2-(2-(5-((1R,2R,4S)-2-amino-7-azabicyclo[2.2.1]heptane-7-carbonyl)-7-methoxy-1-methyl-1H-benzo[d]imidazol-2-yl)-1-(cyclopropylmethyl)-1H-pyrrolo[2,3-b]pyridin-6-yl)pyrrolidin-1-yl)ethan-1-one] | 7.44
C[C@H]1CCCS(=O)(=O)N1c1ccc2cc(-c3nc4cc(C(=O)N5C[C@H]6CC[C@@H]5[C@@H]6N)ccc4n3C3CC3)n(CC3CC3)c2n1 [Example 100, ((1R,4R,7R)-7-amino-2-azabicyclo[2.2.1]heptan-2-yl) (1-cyclopropyl-2-(1-(cyclopropylmethyl)-6-((S)-3-methyl-1,1-dioxido-1,2-thiazinan-2-yl)-1H-pyrrolo[2,3-b]pyridin-2-yl)-1H-benzo[d]imidazol-5-yl)methanone] | 7.26
COc1cc(C(=O)N2[C@H]3CC[C@@H]2[C@H](N)C3)cc2nc(-c3cc4ccc([C@@H](C)NC(=O)c5c(F)cccc5F)cc4n3CC3CC3)n(C3CC3)c12 [Example 148, N-((R)-1-(2-(5-((1R,2R,4S)-2-amino-7-azabicyclo[2.2.1]heptane-7-carbonyl)-1-cyclopropyl-7-methoxy-1H-benzo[d]imidazol-2-yl)-1-(cyclopropylmethyl)-1H-indol-6-yl)ethyl)-2,6-difluorobenzamide] | 6.91
COc1cc(C(=O)N2[C@H]3CC[C@@H]2[C@H](N)C3)cc2nc(-c3cc4ccc([C@@H](C)NS(=O)(=O)c5ccc(F)cc5)nc4n3CC3CC3)n(C)c12 [Example 242, N-((R)-1-(2-(5-((1R,2R,4S)-2-amino-7-azabicyclo[2.2.1]heptane-7-carbonyl)-7-methoxy-1-methyl-1H-benzo[d]imidazol-2-yl)-1-(cyclopropylmethyl)-1H-pyrrolo[2,3-b]pyridin-6-yl)ethyl)-4-fluorobenzenesulfonamide] | 6.97
COc1cc(C(=O)N2[C@H]3CC[C@@H]2[C@H](N)C3)cc2nc(-c3cc4ccc([C@@H](C)NC(=O)C(C)(C)C)nc4n3CC3CC3)n(C)c12 [Example 120, N—((R)-1-(2-(5-((1R,2R,4S)-2-amino-7-azabicyclo[2.2.1]heptane-7-carbonyl)-7-methoxy-1-methyl-1H-benzo[d]imidazol-2-yl)-1-(cyclopropylmethyl)-1H-pyrrolo[2,3-b]pyridin-6-yl)ethyl)pivalamide] | 7.22
COc1cc(C(=O)N2C[C@H](N)CCN2C)cc2nc(-c3cc4ccc([C@@H](C)NC(=O)c5nc(C)cc(C(F)(F)F)n5)nc4n3CC3CC3)n(C)c12 [Example 183, N-((R)-1-(2-(5-((R)-5-amino-2-methylhexahydropyridazine-1-carbonyl)-7-methoxy-1-methyl-1H-benzo[d]imidazol-2-yl)-1-(cyclopropylmethyl)-1H-pyrrolo[2,3-b]pyridin-6-yl)ethyl)-4-methyl-6-(trifluoromethyl)pyrimidine-2-carboxamide] | 6.70
